Data on three molecules can be found in patent publication US8163767B2, “Heterocyclic Janus Kinase 3 inhibitors” (Astellas Pharma Inc., priority 2005, dated 2012).

For orientation: inhibition means how much of the control response was suppressed.

Where only a bound is given, the exact number is not on record here.

The target in this test is T1, human JAK3 (Homo sapiens, UniProt P52333).
T1 construct: His (N); purchased Carna Bioscience Inc. (Kobe, Japan); host or cells: baculovirus expression system
T1 sequence (P52333 796-1124): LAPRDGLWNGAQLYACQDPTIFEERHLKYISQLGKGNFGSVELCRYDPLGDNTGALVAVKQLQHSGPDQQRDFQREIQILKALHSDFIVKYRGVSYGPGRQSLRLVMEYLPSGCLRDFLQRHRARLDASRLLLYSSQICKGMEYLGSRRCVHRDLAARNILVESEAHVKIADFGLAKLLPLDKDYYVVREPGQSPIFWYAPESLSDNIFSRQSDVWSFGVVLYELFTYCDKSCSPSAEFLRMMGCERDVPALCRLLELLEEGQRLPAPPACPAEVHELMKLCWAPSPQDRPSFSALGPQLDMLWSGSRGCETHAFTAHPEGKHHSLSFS
Put plainly: Determination of Janus Kinase 3 (JAK3) inhibitory activity. It counts as biochemical. Particulars: test compound 10^−8M; read-out: IR (JAK3 inhibition rate). The method, then:
Test 1: Determination of Janus Kinase 3 (JAK3) Inhibitory Activity
The assay for JAK3 activity was performed basically according to the method as proposed by Okimoto et al, as follows.
Purified kinase domain (KD) of human JAK3 was purchased from Carna Bioscience Inc. (Kobe, Japan). 796-1124 (end) amino acids of human JAK3 [accession number #NM_000215] was expressed as N-terminal His-tagged protein (41 kDa) using the baculovirus expression system and purified by using Ni-NTA affinity chromatography.
Biotin-Lyn-Substrate-peptide and ATP were used as substrates. Assay buffer consisted of 15 mM Tris-HCl pH7.5, 0.01% Tween 20 and 2 mM DTT. For the standard assay, 20 μL of substrate solution (Assay buffer containing 627 nM Biotin-Lyn-Substrate-2, 20 μM ATP and 25 mM MgCl2), 10 μL of assay buffer containing test compound and 20 μL of enzyme solution were added to the plate and mixed well.
After 1 hour incubation at ambient temperature, the plate was washed 4 times with wash buffer (50 mM Tris-HCl pH 7.5, 150 mM NaCl, 0.02% Tween 20), and then blocking buffer (wash buffer containing 0.1% Bovine serum albumin) was added to the plate. After 30 minutes incubation at ambient temperature, blocking buffer was removed and HRP-PY-20 solution (HRP-PY-20 500 times diluted with blocking buffer) was added. After 30 minutes incubation at ambient temperature, the plate was washed 4 times and TMB substrate solution (Sigma) was added to the plate. After 4 minutes incubation at ambient temperature, 1 M H2SO4 was added to the plate to stop the reaction. Enzyme activity was measured as optical density at 450 nm.
Take `CC1CCN(C(=O)N(C)CC#N)CC1n1c(=O)[nH]c2cnc3[nH]ccc3c21` (stereo not drawn) [Example 284, N-(Cyanomethyl)-N,4-dimethyl-3-(2-oxo-3,6-dihydroimidazo-[4,5-d]pyrrolo[2,3-b]pyridin-1(2H)-yl)-1-piperidinecarboxamide]: the inhibition at 0.01 µM was more than 50%.
As for `N#Cc1ccc(N2CCC(Nc3c(C(N)=O)cnc4[nH]cnc34)CC2)nc1` [Example 322, 7-{[1-(5-cyano-2-pyridinyl)-4-piperidinyl]amino}-3H-imidazo[4,5-b]pyridine-6-carboxamide], the figure is more than 50%; as for `C[C@@H]1CCCC[C@@H]1n1c(=O)[nH]c2cnc3[nH]cc(Br)c3c21` [Example 324, 8-bromo-1-[(1S,2R)-2-methylcyclohexyl]-3,6-dihydroimidazo[4,5-d]pyrrolo[2,3-b]pyridin-2(1H)-one], more than 50%.
